According to patent US10231954B2, “Neurodegenerative therapies” (LYTIX BIOPHARMA AS, priority 2014, dated 2019):
Like-named read-outs stand apart in the source and are kept apart here.

Legend:
Format in all cases: biochemical
PAK6 = PAK6 (Homo sapiens, UniProt Q9NQU5); test: Kinase profiling PAK6; conditions: for remaining activity at 100 µM: read-out: residual kinase activity, PAK6
Text: (§1) Any value less that 25 is considered to be highly significant inhibition.

PAK2 = PAK2 (Homo sapiens, UniProt Q13177); test: Kinase profiling PAK2; conditions: for remaining activity at 100 µM: read-out: residual kinase activity, PAK2
Text: as §1

MINK1 = MINK1 (Homo sapiens, UniProt Q8N4C8); test: Kinase profiling MINK1; conditions: for remaining activity at 100 µM: read-out: residual kinase activity, MINK1
Text: as §1

HIPK3 = HIPK3 (Homo sapiens, UniProt Q9H422); test: Kinase profiling HIPK3; conditions: for remaining activity at 100 µM: read-out: residual kinase activity, HIPK3
Text: as §1

IKKe = target: T1, IKKe (Homo sapiens, UniProt Q14164); test: Kinase profiling IKKe; conditions: for remaining activity at 100 µM: read-out: residual kinase activity, IKKe
T1 sequence (Q14164 1-716): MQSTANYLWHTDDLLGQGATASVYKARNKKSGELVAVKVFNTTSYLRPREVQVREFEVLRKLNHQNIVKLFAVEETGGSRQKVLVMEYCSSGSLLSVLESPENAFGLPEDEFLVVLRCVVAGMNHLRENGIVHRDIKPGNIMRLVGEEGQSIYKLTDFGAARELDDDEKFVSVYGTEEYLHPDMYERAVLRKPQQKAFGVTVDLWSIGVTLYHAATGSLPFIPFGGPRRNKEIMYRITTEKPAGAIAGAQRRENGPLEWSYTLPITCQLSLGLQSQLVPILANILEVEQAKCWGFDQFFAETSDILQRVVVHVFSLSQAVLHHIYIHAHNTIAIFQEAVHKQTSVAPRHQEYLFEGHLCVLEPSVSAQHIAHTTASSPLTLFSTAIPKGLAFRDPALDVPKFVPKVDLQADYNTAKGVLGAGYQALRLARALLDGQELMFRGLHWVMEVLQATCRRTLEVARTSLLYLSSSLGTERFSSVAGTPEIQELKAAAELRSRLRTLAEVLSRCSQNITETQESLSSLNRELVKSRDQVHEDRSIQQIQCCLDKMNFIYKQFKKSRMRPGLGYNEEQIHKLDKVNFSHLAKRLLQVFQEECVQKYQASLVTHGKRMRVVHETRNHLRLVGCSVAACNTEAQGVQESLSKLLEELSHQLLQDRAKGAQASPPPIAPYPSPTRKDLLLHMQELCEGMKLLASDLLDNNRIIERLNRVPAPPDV
Text: as §1

TSSK1 = target: T2, TSSK1 (Homo sapiens, UniProt Q9BXA7); test: Kinase profiling TSSK1; conditions: for remaining activity at 100 µM: read-out: residual kinase activity, TSSK1
T2 sequence (Q9BXA7 1-367): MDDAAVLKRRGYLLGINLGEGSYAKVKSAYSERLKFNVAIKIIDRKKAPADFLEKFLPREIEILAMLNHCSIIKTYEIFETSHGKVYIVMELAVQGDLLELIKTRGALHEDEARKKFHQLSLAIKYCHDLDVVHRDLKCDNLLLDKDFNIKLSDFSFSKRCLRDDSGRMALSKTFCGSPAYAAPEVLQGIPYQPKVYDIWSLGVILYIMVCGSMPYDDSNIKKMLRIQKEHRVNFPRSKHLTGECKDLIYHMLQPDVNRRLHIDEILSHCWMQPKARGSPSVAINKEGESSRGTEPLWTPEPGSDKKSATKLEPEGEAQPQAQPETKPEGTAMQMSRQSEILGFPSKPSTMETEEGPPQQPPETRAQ
Text: as §1

TGFBR1 = target: T3, TGFBR1 (Homo sapiens, UniProt P36897); test: Kinase profiling TGFBR1; conditions: for remaining activity at 100 µM: read-out: residual kinase activity, TGFBR1
T3 sequence (P36897 34-503): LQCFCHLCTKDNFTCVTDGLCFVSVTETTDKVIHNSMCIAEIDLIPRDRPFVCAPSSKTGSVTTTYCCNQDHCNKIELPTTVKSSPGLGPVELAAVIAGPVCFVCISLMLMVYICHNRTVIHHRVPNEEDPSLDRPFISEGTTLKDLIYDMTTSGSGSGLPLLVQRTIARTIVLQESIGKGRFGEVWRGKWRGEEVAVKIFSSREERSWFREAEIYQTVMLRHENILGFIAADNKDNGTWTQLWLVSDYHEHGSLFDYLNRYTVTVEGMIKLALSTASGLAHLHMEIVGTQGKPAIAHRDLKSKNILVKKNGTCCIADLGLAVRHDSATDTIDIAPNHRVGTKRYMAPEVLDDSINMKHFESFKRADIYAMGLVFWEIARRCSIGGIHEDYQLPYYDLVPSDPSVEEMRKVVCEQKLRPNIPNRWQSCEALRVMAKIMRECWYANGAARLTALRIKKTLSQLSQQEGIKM
Text: as §1

DAPK1 = DAPK1 (Homo sapiens, UniProt P53355); test: Kinase profiling DAPK1; conditions: for remaining activity at 100 µM: read-out: residual kinase activity, DAPK1
Text: as §1

BRSK1 = target: T4, BRSK1 (Homo sapiens, UniProt Q8TDC3); test: Kinase profiling BRSK1; conditions: for remaining activity at 100 µM: read-out: residual kinase activity, BRSK1
T4 sequence (Q8TDC3 1-778): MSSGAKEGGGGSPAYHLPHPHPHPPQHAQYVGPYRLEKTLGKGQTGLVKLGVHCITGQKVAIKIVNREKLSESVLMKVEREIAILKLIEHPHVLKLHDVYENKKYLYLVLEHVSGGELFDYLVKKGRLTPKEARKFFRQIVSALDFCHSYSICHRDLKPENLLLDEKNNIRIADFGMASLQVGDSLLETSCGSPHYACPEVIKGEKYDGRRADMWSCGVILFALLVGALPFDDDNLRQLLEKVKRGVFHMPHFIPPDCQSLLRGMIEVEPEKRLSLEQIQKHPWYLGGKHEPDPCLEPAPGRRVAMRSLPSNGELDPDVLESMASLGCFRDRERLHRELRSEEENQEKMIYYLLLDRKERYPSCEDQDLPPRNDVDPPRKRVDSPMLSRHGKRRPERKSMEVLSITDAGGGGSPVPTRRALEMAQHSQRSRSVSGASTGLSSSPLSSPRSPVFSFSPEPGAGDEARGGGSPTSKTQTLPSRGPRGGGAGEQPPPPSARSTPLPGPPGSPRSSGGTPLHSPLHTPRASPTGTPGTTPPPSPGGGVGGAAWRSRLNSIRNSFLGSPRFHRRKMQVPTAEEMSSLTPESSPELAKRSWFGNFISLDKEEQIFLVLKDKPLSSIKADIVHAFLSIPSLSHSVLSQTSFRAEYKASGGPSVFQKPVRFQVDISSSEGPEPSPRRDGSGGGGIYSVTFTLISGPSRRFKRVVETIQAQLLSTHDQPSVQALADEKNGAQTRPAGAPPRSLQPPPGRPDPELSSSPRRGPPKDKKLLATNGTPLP
Text: as §1

TESK1 = TESK1 (Homo sapiens, UniProt Q15569); test: Kinase profiling TESK1; conditions: for remaining activity at 100 µM: read-out: residual kinase activity, TESK1
Text: as §1

FGF-R1 = FGF-R1 (Homo sapiens, UniProt P11362); test: Kinase profiling FGF-R1; conditions: for remaining activity at 100 µM: read-out: residual kinase activity, FGF-R1
Text: as §1

[1] = 100 micromolar inhibitor, 100 = no change
[2] = 100 micromolar inhibitor concentration, 100 is no change

Sequence of MINK1 (Q8N4C8 whole entry, species assumed): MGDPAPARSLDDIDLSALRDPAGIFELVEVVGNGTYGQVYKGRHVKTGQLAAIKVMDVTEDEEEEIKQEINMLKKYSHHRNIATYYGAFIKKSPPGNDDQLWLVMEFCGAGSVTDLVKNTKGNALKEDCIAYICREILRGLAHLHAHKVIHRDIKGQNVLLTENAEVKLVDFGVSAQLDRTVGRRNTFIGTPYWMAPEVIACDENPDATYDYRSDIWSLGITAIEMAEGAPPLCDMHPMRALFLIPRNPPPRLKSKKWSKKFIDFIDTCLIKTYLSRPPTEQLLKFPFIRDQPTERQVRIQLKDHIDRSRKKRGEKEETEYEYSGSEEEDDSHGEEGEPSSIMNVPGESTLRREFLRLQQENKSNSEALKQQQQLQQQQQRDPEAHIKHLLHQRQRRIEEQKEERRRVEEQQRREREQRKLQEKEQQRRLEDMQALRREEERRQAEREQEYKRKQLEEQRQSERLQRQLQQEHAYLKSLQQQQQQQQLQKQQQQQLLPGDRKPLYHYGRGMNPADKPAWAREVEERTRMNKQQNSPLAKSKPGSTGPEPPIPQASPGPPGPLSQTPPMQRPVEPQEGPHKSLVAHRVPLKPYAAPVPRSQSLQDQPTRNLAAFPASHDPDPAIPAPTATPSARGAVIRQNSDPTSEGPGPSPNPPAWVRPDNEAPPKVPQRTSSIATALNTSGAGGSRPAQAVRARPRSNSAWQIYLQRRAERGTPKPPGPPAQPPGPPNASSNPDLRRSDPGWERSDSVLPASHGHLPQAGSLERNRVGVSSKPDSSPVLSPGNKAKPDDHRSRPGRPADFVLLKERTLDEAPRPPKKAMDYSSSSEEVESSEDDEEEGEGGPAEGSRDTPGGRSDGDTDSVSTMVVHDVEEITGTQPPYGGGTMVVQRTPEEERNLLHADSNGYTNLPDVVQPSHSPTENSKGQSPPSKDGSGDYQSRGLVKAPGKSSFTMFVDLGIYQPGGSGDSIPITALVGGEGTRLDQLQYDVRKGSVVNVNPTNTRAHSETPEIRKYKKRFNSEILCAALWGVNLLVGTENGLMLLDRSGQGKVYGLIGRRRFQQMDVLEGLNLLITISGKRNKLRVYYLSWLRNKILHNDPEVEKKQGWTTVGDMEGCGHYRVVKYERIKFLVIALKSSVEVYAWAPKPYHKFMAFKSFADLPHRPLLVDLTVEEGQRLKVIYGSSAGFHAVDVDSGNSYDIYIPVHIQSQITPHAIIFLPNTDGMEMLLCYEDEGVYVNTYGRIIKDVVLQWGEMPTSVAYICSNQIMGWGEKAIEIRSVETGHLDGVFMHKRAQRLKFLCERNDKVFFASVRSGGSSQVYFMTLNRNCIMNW
Sequence of DAPK1 (P53355 whole entry, species assumed): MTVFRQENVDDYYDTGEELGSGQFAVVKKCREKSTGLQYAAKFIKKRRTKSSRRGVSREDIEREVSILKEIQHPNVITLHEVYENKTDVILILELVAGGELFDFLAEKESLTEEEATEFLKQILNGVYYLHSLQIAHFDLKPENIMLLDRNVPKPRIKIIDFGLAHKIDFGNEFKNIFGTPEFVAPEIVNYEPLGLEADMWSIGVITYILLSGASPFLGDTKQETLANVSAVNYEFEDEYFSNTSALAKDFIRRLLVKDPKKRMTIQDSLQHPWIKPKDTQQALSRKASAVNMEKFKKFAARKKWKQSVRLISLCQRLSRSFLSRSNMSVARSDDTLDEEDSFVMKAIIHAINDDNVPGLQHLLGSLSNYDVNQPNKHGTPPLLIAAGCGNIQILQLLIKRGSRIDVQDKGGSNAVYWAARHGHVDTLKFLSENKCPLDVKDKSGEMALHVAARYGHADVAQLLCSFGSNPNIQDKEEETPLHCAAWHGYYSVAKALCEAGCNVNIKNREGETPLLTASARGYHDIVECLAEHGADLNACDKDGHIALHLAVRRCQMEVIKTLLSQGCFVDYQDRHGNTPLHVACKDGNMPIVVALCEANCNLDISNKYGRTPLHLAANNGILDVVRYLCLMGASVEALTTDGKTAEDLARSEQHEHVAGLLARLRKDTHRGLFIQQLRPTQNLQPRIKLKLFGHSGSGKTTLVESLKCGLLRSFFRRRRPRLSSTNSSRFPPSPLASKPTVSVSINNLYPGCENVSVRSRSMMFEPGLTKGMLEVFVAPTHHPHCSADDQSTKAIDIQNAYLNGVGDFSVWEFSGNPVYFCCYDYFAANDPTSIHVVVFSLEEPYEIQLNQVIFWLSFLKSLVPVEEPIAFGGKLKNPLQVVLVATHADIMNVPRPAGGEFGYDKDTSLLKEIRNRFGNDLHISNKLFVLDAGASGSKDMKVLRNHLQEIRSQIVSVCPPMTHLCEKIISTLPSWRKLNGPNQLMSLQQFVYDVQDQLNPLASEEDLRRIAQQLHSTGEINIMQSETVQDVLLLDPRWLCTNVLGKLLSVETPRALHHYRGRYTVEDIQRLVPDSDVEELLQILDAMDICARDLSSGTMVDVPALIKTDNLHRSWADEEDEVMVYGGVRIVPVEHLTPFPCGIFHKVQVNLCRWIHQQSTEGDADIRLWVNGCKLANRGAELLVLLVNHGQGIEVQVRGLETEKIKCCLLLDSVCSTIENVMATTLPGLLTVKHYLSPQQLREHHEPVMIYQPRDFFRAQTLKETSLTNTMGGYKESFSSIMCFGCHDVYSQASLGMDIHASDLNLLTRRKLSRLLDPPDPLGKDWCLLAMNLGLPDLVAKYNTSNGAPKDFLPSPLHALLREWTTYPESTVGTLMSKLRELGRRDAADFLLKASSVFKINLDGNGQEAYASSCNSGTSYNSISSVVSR
Sequence of HIPK3 (Q9H422 whole entry, species assumed): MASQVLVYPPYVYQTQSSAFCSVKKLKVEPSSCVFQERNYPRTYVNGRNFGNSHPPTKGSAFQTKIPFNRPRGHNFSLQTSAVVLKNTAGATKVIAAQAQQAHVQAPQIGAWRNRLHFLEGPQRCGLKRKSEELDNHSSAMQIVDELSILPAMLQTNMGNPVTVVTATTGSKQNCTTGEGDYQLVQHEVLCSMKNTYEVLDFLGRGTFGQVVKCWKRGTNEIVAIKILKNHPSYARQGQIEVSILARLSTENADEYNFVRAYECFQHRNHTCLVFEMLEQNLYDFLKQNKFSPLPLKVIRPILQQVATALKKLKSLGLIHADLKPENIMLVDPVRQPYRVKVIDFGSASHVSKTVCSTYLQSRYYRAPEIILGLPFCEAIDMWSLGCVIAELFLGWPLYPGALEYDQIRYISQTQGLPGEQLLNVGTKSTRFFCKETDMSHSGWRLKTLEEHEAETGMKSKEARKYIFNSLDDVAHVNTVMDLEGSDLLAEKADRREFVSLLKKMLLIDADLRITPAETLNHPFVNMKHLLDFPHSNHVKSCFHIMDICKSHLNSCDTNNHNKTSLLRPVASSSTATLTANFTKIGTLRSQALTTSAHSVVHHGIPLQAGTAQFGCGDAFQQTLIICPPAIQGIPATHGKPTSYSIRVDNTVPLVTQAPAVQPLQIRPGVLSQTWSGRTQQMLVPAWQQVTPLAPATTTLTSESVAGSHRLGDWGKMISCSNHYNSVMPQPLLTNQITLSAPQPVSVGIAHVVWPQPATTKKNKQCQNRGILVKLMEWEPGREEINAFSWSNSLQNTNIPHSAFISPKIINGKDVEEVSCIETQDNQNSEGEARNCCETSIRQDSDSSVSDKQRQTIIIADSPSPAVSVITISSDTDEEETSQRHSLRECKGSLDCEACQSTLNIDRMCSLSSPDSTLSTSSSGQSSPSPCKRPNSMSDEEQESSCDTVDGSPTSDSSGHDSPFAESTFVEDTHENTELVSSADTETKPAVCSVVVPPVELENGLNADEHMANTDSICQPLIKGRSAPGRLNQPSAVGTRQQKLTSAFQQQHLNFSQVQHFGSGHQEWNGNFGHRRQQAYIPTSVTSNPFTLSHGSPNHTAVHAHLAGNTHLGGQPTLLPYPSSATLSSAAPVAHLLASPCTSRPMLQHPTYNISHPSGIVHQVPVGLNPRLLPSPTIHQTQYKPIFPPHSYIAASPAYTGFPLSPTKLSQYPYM
Sequence of PAK2 (Q13177 whole entry, species assumed): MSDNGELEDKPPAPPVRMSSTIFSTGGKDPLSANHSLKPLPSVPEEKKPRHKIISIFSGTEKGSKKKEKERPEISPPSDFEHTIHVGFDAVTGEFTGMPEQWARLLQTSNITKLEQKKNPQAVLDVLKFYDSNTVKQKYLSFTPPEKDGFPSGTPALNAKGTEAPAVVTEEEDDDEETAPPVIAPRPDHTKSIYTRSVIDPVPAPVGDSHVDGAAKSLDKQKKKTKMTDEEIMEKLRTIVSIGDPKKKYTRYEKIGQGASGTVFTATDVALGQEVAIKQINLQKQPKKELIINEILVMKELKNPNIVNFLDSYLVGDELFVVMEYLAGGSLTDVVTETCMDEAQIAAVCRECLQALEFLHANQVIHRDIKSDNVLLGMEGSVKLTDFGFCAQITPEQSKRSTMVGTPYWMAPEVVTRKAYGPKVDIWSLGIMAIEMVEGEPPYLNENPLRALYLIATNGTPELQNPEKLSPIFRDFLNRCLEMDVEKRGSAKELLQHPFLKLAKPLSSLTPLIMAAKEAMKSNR
Sequence of TESK1 (Q15569 whole entry, species assumed): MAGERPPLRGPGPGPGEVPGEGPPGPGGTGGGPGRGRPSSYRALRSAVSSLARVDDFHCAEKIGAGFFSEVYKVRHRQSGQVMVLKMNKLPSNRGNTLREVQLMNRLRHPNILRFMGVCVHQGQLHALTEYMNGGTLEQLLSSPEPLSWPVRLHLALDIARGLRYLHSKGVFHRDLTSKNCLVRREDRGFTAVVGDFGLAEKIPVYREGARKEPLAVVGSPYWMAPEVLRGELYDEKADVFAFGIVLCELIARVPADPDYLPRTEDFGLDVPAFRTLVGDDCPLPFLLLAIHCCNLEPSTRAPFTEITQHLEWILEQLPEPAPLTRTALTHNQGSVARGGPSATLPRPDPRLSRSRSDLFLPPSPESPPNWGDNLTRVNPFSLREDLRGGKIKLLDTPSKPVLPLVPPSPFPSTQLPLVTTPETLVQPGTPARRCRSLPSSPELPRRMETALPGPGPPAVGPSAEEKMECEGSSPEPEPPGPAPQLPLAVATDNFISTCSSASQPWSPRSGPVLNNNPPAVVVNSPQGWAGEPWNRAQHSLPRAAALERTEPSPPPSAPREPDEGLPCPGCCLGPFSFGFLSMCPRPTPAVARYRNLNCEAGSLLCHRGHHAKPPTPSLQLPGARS

| Compound | residual kinase activity, PAK6 (PAK6; [2]) | residual kinase activity, PAK2 (PAK2; [2]) | residual kinase activity, MINK1 (MINK1; [2]) | residual kinase activity, HIPK3 (HIPK3; [2]) | residual kinase activity, IKKe (IKKe; [2]) | residual kinase activity, TSSK1 (TSSK1; [2]) | residual kinase activity, TGFBR1 (TGFBR1; [2]) | residual kinase activity, DAPK1 (DAPK1; [2]) | residual kinase activity, BRSK1 (BRSK1; [2]) | residual kinase activity, TESK1 (TESK1; [2]) | residual kinase activity, FGF-R1 (FGF-R1; [2]) | remaining activity at 100 µM (PAK6; [2]) [%] | remaining activity at 100 µM (PAK2; [2]) [%] | remaining activity at 100 µM (MINK1; [2]) [%] | remaining activity at 100 µM (HIPK3; [2]) [%] | remaining activity at 100 µM (IKKe; [2]) [%] | remaining activity at 100 µM (TSSK1; [2]) [%] | remaining activity at 100 µM (TGFBR1; [2]) [%] | remaining activity at 100 µM (DAPK1; [2]) [%] | remaining activity at 100 µM (BRSK1; [2]) [%] | further results |
| --- | --- | --- | --- | --- | --- | --- | --- | --- | --- | --- | --- | --- | --- | --- | --- | --- | --- | --- | --- | --- | --- |
| CC(=O)Nc1cccc(NC(=O)c2nc3ccc(O)cc3s2)c1 [Compound 03-07, N-(3-acetamidophenyl)-6-hydroxybenzo[d]thiazole-2-carboxamide] |  |  |  |  |  |  |  |  |  |  |  |  |  |  |  |  |  |  |  |  | remaining activity at 100 µM (PAK6; [1]): 106%; remaining activity at 100 µM (PAK2; [1]): 90%; remaining activity at 100 µM (MINK1; [1]): 18%; remaining activity at 100 µM (HIPK3; [1]): 81%; remaining activity at 100 µM (IKKe; [1]): 73%; remaining activity at 100 µM (TSSK1; [1]): 57%; remaining activity at 100 µM (TGFBR1; [1]): 113%; remaining activity at 100 µM (DAPK1; [1]): 28%; remaining activity at 100 µM (BRSK1; [1]): 52%; remaining activity at 100 µM (TESK1; [1]): 101%; remaining activity at 100 µM (FGF-R1; [1]): 66% |
| O=C(Nc1nc2ccc(O)cc2s1)c1ccccc1 [Compound 03-60] | 104 | 94 | 7 | 38 | 27 | 27 | 93 | 19 | 43 | 65 | 84 |  |  |  |  |  |  |  |  |  |  |
| CC(=O)Nc1nc2ccccc2s1 [Compound 03-32] | 92 | 90 | 92 | 78 | 109 | 83 | 92 | 89 | 95 | 95 | 12 |  |  |  |  |  |  |  |  |  |  |
| O=C(Nc1nc2cc(O)ccc2s1)c1ccncc1 [Compound 03-11] | 90 | 88 | 63 | 106 | 69 | 97 | 107 | 62 | 70 | 88 | 74 |  |  |  |  |  |  |  |  |  |  |
| COc1ccc2sc(NC(C)=O)nc2c1 [Compound 03-21] |  |  |  |  |  |  |  |  |  |  |  | 108 | 95 | 61 | 86 | 91 | 75 | 124 | 79 | 85 | remaining activity at 100 µM (TESK1; [2]): 104%; remaining activity at 100 µM (FGF-R1; [2]): 104% |
| CC(=O)Nc1nc2cc(C(F)(F)F)ccc2s1 [Compound 03-73] |  |  |  |  |  |  |  |  |  |  |  | 11 | 85 | 77 | 106 | 93 | 71 | 118 | 93 | 83 | remaining activity at 100 µM (TESK1; [2]): 115%; remaining activity at 100 µM (FGF-R1; [2]): 109% |
| CC(=O)Nc1nc2cc(F)ccc2s1 [Compound 03-77] |  |  |  |  |  |  |  |  |  |  |  | 106 | 11 | 65 | 62 | 91 | 84 | 96 | 82 | 78 | remaining activity at 100 µM (TESK1; [2]): 106%; remaining activity at 100 µM (FGF-R1; [2]): 103% |
| O=C(Nc1nc2ccc(O)cc2s1)c1cccnc1 [Compound 08-44] | 94 | 85 | 19 | 45 | 50 | 109 | 103 | 26 | 45 | 70 | 56 |  |  |  |  |  |  |  |  |  |  |
